Reference: ChEMBL document CHEMBL5360532, “Current scenario of quinolone hybrids with potential antibacterial activity against ESKAPE pathogens” (Eur J Med Chem, 2023)
Converted amounts (≈) assume the structure as drawn. Values belong to the molecule of their own block, whether it stands above or below them.

Legend:
Format in all cases: functional
Staphylococcus aureus [1] = assay: Antibacterial activity against methicillin resistant Staphylococcus aureus assessed as bacterial growth inhibition by two fold microdilution assay
Escherichia coli [2] = assay: Antibacterial activity against Escherichia coli assessed as bacterial growth inhibition by two fold microdilution assay
Klebsiella pneumoniae = assay: Antibacterial activity against Klebsiella pneumoniae assessed as bacterial growth inhibition by two fold microdilution assay
Staphylococcus aureus [3] = assay: Antibacterial activity against methicillin sensitive Staphylococcus aureus assessed as bacterial growth inhibition by two fold microdilution assay
Staphylococcus aureus [4] = assay: Antibacterial activity against Staphylococcus aureus ATCC 29213 assessed as bacterial growth inhibition by broth microdilution assay
Escherichia coli [5] = assay: Antibacterial activity against Escherichia coli ATCC 25922 assessed as bacterial growth inhibition by broth microdilution assay
Staphylococcus aureus [6] = assay: Antibacterial activity against Staphylococcus aureus assessed as bacterial growth inhibition by serial dilution method
[7] = system: Mycolicibacterium smegmatis; assay: Antibacterial activity against Mycobacterium smegmatis assessed as bacterial growth inhibition by serial dilution method
Pseudomonas aeruginosa [8] = assay: Antibacterial activity against Pseudomonas aeruginosa assessed as bacterial growth inhibition by serial dilution method
Proteus mirabilis = assay: Antibacterial activity against efflux deficient Proteus mirabilis DSM-4479 assessed as bacterial growth inhibition by agar diffusion assay
Pseudomonas aeruginosa [9] = assay: Antibacterial activity against efflux deficient Pseudomonas aeruginosa DSM-30104 assessed as bacterial growth inhibition by agar diffusion assay
Pseudomonas aeruginosa [10] = assay: Antibacterial activity against efflux deficient Pseudomonas aeruginosa PA14 assessed as bacterial growth inhibition by agar diffusion assay
Escherichia coli [11] = assay: Antibacterial activity against Escherichia coli DSM-1116 assessed as bacterial growth inhibition by agar diffusion assay
Staphylococcus aureus [12] = assay: Antibacterial activity against Staphylococcus aureus Newman assessed as bacterial growth inhibition by agar diffusion assay
Escherichia coli [13] = assay: Antibacterial activity against efflux deficient Escherichia coli TolC assessed as bacterial growth inhibition by agar diffusion assay

Compound: O=C(O)c1cn([C@@H]2C[C@@H]2F)c2cc(N3CCN(Cn4nc(-c5ccncc5)n(Cc5ccccc5)c4=S)CC3)c(F)cc2c1=O
MIC (Staphylococcus aureus [1]): 0.5 µg/mL (≈ 0.794 µM) | MIC (Escherichia coli [2]): ≤ 0.003 µg/mL | MIC (Klebsiella pneumoniae): ≤ 0.003 µg/mL | MIC (Staphylococcus aureus [3]): 0.5 µg/mL (≈ 0.794 µM)

MIC (Staphylococcus aureus [4]): 0.031 µg/mL (≈ 0.0633 µM) | MIC (Escherichia coli [5]): 0.25 µg/mL (≈ 0.511 µM)
Compound: O=C(O)c1cn(C2CC2)c2cc(N3CCN(Cc4nc5ccccc5c(=O)[nH]4)CC3)c(F)cc2c1=O

MIC (Staphylococcus aureus [6]): 0.125 µg/mL (≈ 0.167 µM) | MIC [7]: 0.125 µg/mL (≈ 0.167 µM) | MIC (Pseudomonas aeruginosa [8]): 0.125 µg/mL (≈ 0.167 µM)
Compound: COC(=O)c1ccc(NC(=O)COC(=O)c2ccncc2)cc1OCCC(=O)NC1CCN(c2c(F)cc3c(=O)c(C(=O)O)cn(C4CC4)c3c2Cl)C1 (stereo not given)

MIC (Proteus mirabilis): ≤ 0.03 µg/mL | MIC (Pseudomonas aeruginosa [9]): ≤ 0.03 µg/mL | MIC (Pseudomonas aeruginosa [10]): ≤ 0.03 µg/mL | MIC (Escherichia coli [11]): ≤ 0.03 µg/mL | MIC (Staphylococcus aureus [12]): ≤ 0.03 µg/mL | MIC (Escherichia coli [13]): ≤ 0.03 µg/mL
Compound: N#Cc1c(-c2ccccc2)nc(SCC(=O)N2CCN(c3cc4c(cc3F)c(=O)c(C(=O)O)cn4C3CC3)CC2)[nH]c1=O
